ChEMBL document CHEMBL4346694, “Identification of Three-Way DNA Junction Ligands through Screening of Chemical Libraries and Validation by Complementary in Vitro Assays” (J Med Chem, 2019)
Calls of active or inactive are those of the source. The rule behind the calls is not given here.

Columns and labels:
[1] = Selectivity index, ratio of LD50 for human hTERT-BJ cells to LD50 for human MDA-MB-231 cells; type: toxicity; settings: hTERT-BJ cells versus MDA-MB-231 cells, read-out: Selectivity Index
[2] = Selectivity ratio of K for TWJ DNA (unknown origin) to K for ds17 DNA (unknown origin)
[3] = Binding affinity to TWJ DNA (unknown origin) measured after 24 hrs by equilibrium dialysis method
[4] = Binding affinity to FAM-TWJ-TAMRA DNA (unknown origin) assessed as change in melting temperature at 1 uM after 30 mins in presence of 3 uM ds26 DNA by FRET assay
MCF7 [5] = experiment: Induction of DNA damage in human MCF7 cells assessed as gammaH2AX accumulation at 10 times antiproliferative LD50 measured after 72 hrs by DAPI staining-based confocal laser scanning microscopic analysis; type: functional, cell-based
[6] = Binding affinity to FAM-TWJ-S1 DNA (unknown origin) assessed as normalized FAM intensity at 1 uM measured at 5 mins interval for 1 hr by fluorescence assay relative to control
[7] = Selectivity ratio of compound effect for binding affinity to FAM-TWJ-TAMRA DNA (unknown origin) assessed as change in melting temperature at 1 uM in absence of 10 uM ds26 DNA to compound effect for binding affinity to FAM-TWJ-TAMRA DNA (unknown origin) assessed as change in melting temperature at 1 uM in presence of 10 uM ds26 DNA
[8] = Binding affinity to ds17 DNA (unknown origin) assessed as equilibrium binding constant at 1:3 DNA to compound ratio after 1 hr by ESI-MS analysis
[9] = Binding affinity to ds17 DNA (unknown origin) assessed as equilibrium binding constant at 1:2 DNA to compound ratio after 1 hr by ESI-MS analysis
[10] = Binding affinity to FAM-TWJ-S1/TWJ-S2/TWJ-S3 DNA (unknown origin) assessed as compound-DNA complex formation at 12 uM measured after 1 hr in presence of ds12 DNA by sybrgold-staining based PAGE analysis
[11] = Cytotoxicity against human hTERT-BJ cells assessed as reduction in cell viability measured after 72 hrs by SRB assay; type: cell-based; settings: read-out: LD50
[12] = Selectivity index, ratio of LD50 for human hTERT-BJ cells to LD50 for human MCF7 cells; type: toxicity; settings: hTERT-BJ cells versus MCF7 cells, read-out: Selectivity Index
MCF7 [13] = experiment: Antiproliferative activity against human MCF7 cells assessed as reduction in cell viability measured after 72 hrs by SRB assay; type: functional; settings: MCF7, 72 h, read-out: LD50 (the source's name)
[14] = Binding affinity to FAM-TWJ-TAMRA DNA (unknown origin) assessed as change in melting temperature at 1 uM after 30 mins by FRET assay
MDA-MB-231 = experiment: Antiproliferative activity against human MDA-MB-231 cells assessed as reduction in cell viability measured after 72 hrs by SRB assay; type: functional; settings: MDA-MB-231, 72 h, read-out: LD50 (the source's name)
[15] = Binding affinity to TWJ-S1/TWJ-S2/TWJ-S3 DNA (unknown origin) assessed as compound-DNA complex formation at 30 uM measured after 1 hr by sybrgold-staining based PAGE analysis
[16] = Binding affinity to ds17 DNA measured after 24 hrs by equilibrium dialysis method
[17] = Binding affinity to FAM-TWJ-TAMRA DNA (unknown origin) assessed as change in melting temperature at 1 uM after 30 mins in presence of 10 uM ds26 DNA by FRET assay
[18] = Binding affinity to TWJ DNA (unknown origin) assessed as equilibrium binding constant at 1:2 DNA to compound ratio after 1 hr by ESI-MS analysis
[19] = Binding affinity to FAM-TWJ-S1/TWJ-S2/TAMRA-TWJ-S3 DNA (unknown origin) assessed as normalized FAM intensity at 1 uM measured at 5 mins interval for 1 hr by fluorescence assay relative to control
[20] = Selectivity ratio of Kapp for TWJ DNA (unknown origin) to Kapp for ds17 DNA by equilibrium dialysis method (unknown origin)

Compound | ΔTm [4] [°C] | Ratio [6] [%] | Selectivity ratio [7] [%] | ΔTm [14] [°C] | Activity [15] | ΔTm [17] [°C] | Ratio [19] [%] | also measured
c1cc2cc(c1)-c1cccc(c1)CNCCN1CCNCc3cccc(c3)-c3cccc(c3)CNCCN(CCNC2)CCNCc2cccc(c2)-c2cccc(c2)CNCC1 | 16.6 | 109 | 91 | 17.5 | Active | 15.9 | 33 | selectivity ratio [1]: 2; Selectivity ratio [2]: > 2; Kapp [3]: 6 ×10⁶ /M; Activity (MCF7 [5]): Active; K [8]: 7.5 ×10³ /M; K [9]: inactive; Activity [10]: Active; CC50 at 72 h [11]: 2600 nM; selectivity ratio [12]: 2; CC50 (MCF7 [13]): 100 nM; CC50 (MDA-MB-231): 1300 nM; Kapp [16]: 4.7 ×10⁴ /M; K [18]: 3.9 ×10⁶ /M; Selectivity ratio [20]: > 2
c1cc2nc3ccc4cc3cc2cc1CNCCOCCNCc1ccc2nc3ccc(cc3cc2c1)CNCCOCCNC4 | 20.4 | 27 | 84 | 23 |  | 17.1 | 54 | Selectivity ratio [2]: > 4; Kapp [3]: 1.4 ×10⁷ /M; K [9]: 3.1 ×10⁴ /M; CC50 at 72 h [11]: 1000 nM; CC50 (MCF7 [13]): 4800 nM; CC50 (MDA-MB-231): 2800 nM; Kapp [16]: 3.8 ×10⁵ /M; K [18]: 1.9 ×10⁹ /M; Selectivity ratio [20]: > 1
Cn1c[n+](-c2ccc3ccc4cccc5ccc2c3c45)cn1 |  | 101 |  | 1.5 | inactive |  | 22 | 
C[n+]1ccc(-c2c3nc(c(-c4cc[n+](C)cc4)c4ccc([nH]4)c(-c4cc[n+](C)cc4)c4ccc([nH]4)c(-c4cc[n+](C)cc4)c4nc2C=C4)C=C3)cc1 | 12 | 8 | 35 | 22.5 |  | 8 | 86 | 
NCCCNC[C@]12c3ccccc3[C@](CNCCCN)(c3ccccc31)c1cc3ccccc3cc12 |  | 40 |  | 0.8 | inactive |  | 63 | 
COCCOCCOCC[n+]1ccc(-c2c3nc(c(-c4cc[n+](CCOCCOCCOC)cc4)c4ccc([nH]4)c(-c4cc[n+](CCOCCOCCOC)cc4)c4nc(c(-c5cc[n+](CCOCCOCCOC)cc5)c5ccc2[nH]5)C=C4)C=C3)cc1 | 7 | 27 | 36 | 11 |  | 4 | 72 | 
c1cc2c3nc4c(cccc4cc3c1)CNCCOCCNCc1cccc3cc4cccc(c4nc13)CNCCOCCNC2 | 5.5 | 80 | 39 | 11.6 |  | 4.6 | 35 | 
c1cc2c3cccc(c3c1)CNCCOCCNCc1cccc3c(cccc13)CNCCOCCNC2 | 8.9 | 118 | 82 | 10.4 | Active | 8.5 | 42 | Selectivity ratio [2]: > 2; Kapp [3]: 8.7 ×10⁶ /M; K [9]: 7.5 ×10⁴ /M; CC50 at 72 h [11]: 40 nM; CC50 (MCF7 [13]): 1300 nM; CC50 (MDA-MB-231): 160 nM; Kapp [16]: 5.9 ×10⁵ /M; K [18]: 4.7 ×10⁷ /M; Selectivity ratio [20]: > 1
CN(C)CCCNCC12c3ccccc3C(CNCCCN(C)C)(c3ccccc31)c1ccccc12 |  | 100 |  | 0.6 | inactive |  | 27 | 
c1cc2ccc3cc2cc1CNCCNCCNCc1ccc2ccc(cc2c1)CNCCNCCNC3 | < 5 | 37 |  | 4.2 | Active |  | 46 | 
c1cc2ccc3ccc(-[n+]4csc5ccccc54)c4ccc(c1)c2c34 |  | 100 |  | 0 | inactive |  | 23 | 
